Measured values published in the NIST ThermoML archive (doi:10.1021/je400250u).

Columns and labels:
[1] = xn = mol fraction of the nth substance listed; conditions: 100 kPa, Liquid; for viscosity: Capillary tube (Ostwald / Ubbelohde) method; for mass density: Vibrating tube method
[2] = refractive index (Na D-line) (dimensionless); xn = mol fraction of the nth substance listed; conditions: 100 kPa, Liquid, Standard Abbe refractometry

C1CC[C@H]2CCCC[C@@H]2C1 [trans-decahydronaphthalene] + CCCCCCCCC
Conditions	mass density, [1] [kg/m3]	refractive index, [2]	viscosity, [1] [mPa·s]
293.15 K, x1 = 0.1036	732.72	–	0.772
293.15 K, x1 = 0.2018	746.84	–	0.836
293.15 K, x1 = 0.3016	761.45	–	0.912
293.15 K, x1 = 0.4042	776.68	–	1.004
293.15 K, x1 = 0.4954	790.42	–	1.109
293.15 K, x1 = 0.6009	806.55	–	1.253
293.15 K, x1 = 0.6984	821.69	–	1.409
293.15 K, x1 = 0.8001	837.66	–	1.635
293.15 K, x1 = 0.8933	852.53	–	1.864
293.15 K, x1 = 1	869.78	–	2.112
298.15 K, x1 = 0.1036	728.87	1.4084	0.725
298.15 K, x1 = 0.2018	743	1.4146	0.781
298.15 K, x1 = 0.3016	757.63	1.4205	0.849
298.15 K, x1 = 0.4042	772.88	1.4273	0.934
298.15 K, x1 = 0.4954	786.63	1.4326	1.028
298.15 K, x1 = 0.6009	802.78	1.4397	1.154
298.15 K, x1 = 0.6984	817.94	1.4459	1.305
298.15 K, x1 = 0.8001	833.93	1.4526	1.505
298.15 K, x1 = 0.8933	848.8	1.4591	1.701
298.15 K, x1 = 1	866.07	1.4662	1.925
303.15 K, x1 = 0.1036	724.99	–	0.681
303.15 K, x1 = 0.2018	739.14	–	0.732
303.15 K, x1 = 0.3016	753.79	–	0.795
303.15 K, x1 = 0.4042	769.06	–	0.871
303.15 K, x1 = 0.4954	782.83	–	0.957
303.15 K, x1 = 0.6009	798.99	–	1.075
303.15 K, x1 = 0.6984	814.17	–	1.213
303.15 K, x1 = 0.8001	830.18	–	1.393
303.15 K, x1 = 0.8933	845.07	–	1.568
303.15 K, x1 = 1	862.34	–	1.769
308.15 K, x1 = 0.1036	721.09	1.4038	0.642
308.15 K, x1 = 0.2018	735.26	1.4105	0.688
308.15 K, x1 = 0.3016	749.94	1.4163	0.746
308.15 K, x1 = 0.4042	765.23	1.423	0.816
308.15 K, x1 = 0.4954	779.01	1.4286	0.893
308.15 K, x1 = 0.6009	795.19	1.435	0.998
308.15 K, x1 = 0.6984	810.39	1.4418	1.127
308.15 K, x1 = 0.8001	826.41	1.4486	1.29
308.15 K, x1 = 0.8933	841.33	1.455	1.447
308.15 K, x1 = 1	858.61	1.4618	1.628
313.15 K, x1 = 0.1036	717.18	–	0.607
313.15 K, x1 = 0.2018	731.37	–	0.65
313.15 K, x1 = 0.3016	746.07	–	0.704
313.15 K, x1 = 0.4042	761.38	–	0.766
313.15 K, x1 = 0.4954	775.18	–	0.838
313.15 K, x1 = 0.6009	791.38	–	0.929
313.15 K, x1 = 0.6984	806.6	–	1.052
313.15 K, x1 = 0.8001	822.64	–	1.202
313.15 K, x1 = 0.8933	837.57	–	1.334
313.15 K, x1 = 1	854.88	–	1.505
318.15 K, x1 = 0.1036	713.25	1.3993	0.576
318.15 K, x1 = 0.2018	727.46	1.406	0.614
318.15 K, x1 = 0.3016	742.18	1.4122	0.663
318.15 K, x1 = 0.4042	757.52	1.4187	0.723
318.15 K, x1 = 0.4954	771.34	1.4249	0.786
318.15 K, x1 = 0.6009	787.56	1.4312	0.869
318.15 K, x1 = 0.6984	802.8	1.4379	0.984
318.15 K, x1 = 0.8001	818.86	1.4445	1.118
318.15 K, x1 = 0.8933	833.81	1.4509	1.241
318.15 K, x1 = 1	851.14	1.4581	1.394
323.15 K, x1 = 0.1036	709.3	–	0.547
323.15 K, x1 = 0.2018	723.54	–	0.583
323.15 K, x1 = 0.3016	738.28	–	0.627
323.15 K, x1 = 0.4042	753.64	–	0.682
323.15 K, x1 = 0.4954	767.48	–	0.742
323.15 K, x1 = 0.6009	783.73	–	0.821
323.15 K, x1 = 0.6984	798.99	–	0.922
323.15 K, x1 = 0.8001	815.08	–	1.041
323.15 K, x1 = 0.8933	830.05	–	1.156
323.15 K, x1 = 1	847.4	–	1.295
